Data taken from patent US20260115250A1, “METHODS OF TREATING AGE-RELATED MACULAR DEGENERATION” (Character Biosciences, Inc., priority 2022, published 2026).
Read-outs that look alike come from different tables or passages of the source. Ends that are not written are not given here. Peptide text beside a SMILES is read from it.

Tests used:
ARPE-19 cells [1] = experiment: ARPE-19 cell viability assay (Cell Titer Glo); type: cell-based, human; conditions: 100 μM peptide, 1.5 hours
Experimental: ARPE-19 cells were seeded in 96-well plates at 25,000 cells/well and allowed to adhere to the plate surface for at least 24 hours. Peptides were diluted in serum-free DMEM: F12 to a final concentration of 100 μM. Cells were washed, then incubated in 100 μM peptide solution for 1.5 hours at 37° C. Plates were brought to room temperature for 30 minutes, then washed with DPBS. Cells were incubated in a 1:1 mixture of DPBS and Cell Titer Glo 2.0 Reagent for 10 minutes at room temperature, then cell luminescence was read on a plate reader. Viability values were background corrected, and 0% viability is determined by luminescence values of cells treated with 1% Triton-X-100. Data are presented as mean+SD over two separate runs.

LDLR = LDLR (Homo sapiens, UniProt P01130); experiment: LDLR binding (SPR), high surfactant preparation
Sequence of LDLR (P01130 22-860): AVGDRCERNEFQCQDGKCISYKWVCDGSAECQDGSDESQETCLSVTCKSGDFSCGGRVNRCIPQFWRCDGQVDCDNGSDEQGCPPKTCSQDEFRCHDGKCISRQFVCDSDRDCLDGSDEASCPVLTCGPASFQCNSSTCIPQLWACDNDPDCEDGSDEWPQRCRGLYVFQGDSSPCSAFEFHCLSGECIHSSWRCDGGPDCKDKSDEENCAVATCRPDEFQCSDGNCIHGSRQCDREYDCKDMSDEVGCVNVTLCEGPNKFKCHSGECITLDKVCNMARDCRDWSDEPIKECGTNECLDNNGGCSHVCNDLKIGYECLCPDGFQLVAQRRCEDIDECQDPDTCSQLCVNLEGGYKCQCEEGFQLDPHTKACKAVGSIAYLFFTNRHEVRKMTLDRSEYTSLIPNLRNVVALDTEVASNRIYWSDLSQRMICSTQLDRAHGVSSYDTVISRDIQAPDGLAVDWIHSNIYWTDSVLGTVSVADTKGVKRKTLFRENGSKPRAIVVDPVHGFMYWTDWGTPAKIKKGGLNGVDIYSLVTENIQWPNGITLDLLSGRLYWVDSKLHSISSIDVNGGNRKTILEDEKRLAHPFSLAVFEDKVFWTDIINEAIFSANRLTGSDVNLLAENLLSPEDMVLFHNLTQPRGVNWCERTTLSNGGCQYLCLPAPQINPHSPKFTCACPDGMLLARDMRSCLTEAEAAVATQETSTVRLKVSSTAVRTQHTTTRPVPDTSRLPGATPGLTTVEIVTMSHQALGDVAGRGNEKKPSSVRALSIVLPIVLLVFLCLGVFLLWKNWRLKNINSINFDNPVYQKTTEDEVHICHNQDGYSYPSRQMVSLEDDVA
Experimental: The table shown in FIG. 23 illustrates LDLR binding data (SPR), using a high surfactant preparation. Recombinant LDLR was diluted in 10 mM acetate buffer pH 4.5 and amine coupled to a CM5 chip at 1000 RU. Peptides were diluted to 5 μM in running buffer (HBS-P+, 1 mM CaCl2) and serially diluted 1:3 for 5 total concentrations. Peptides were exposed to immobilized LDLR at a rate of […] for 120 seconds. Between cycles, the chip surface was regenerated with 3 injections of 50 mM NaOH/100 mM EDTA. Multi-Cycle Kinetics was performed on a Biacore Insight Evaluation Software and binding kinetics were analyzed with a 1:1 binding model.

ARPE-19 cells [2] = experiment: ARPE-19 cholesterol efflux; type: cell-based, human; conditions: ARPE-19, 20 μM peptide, 4 hours
Experimental: Fully confluent 96-well plates of ARPE-19 cells were treated for 1 hour in serum-free DMEM containing 10 mM methyl-β-cyclodextrin, 100 μM cholesterol, and 25 μM BODIPY cholesterol. Cells were then washed and incubated overnight in serum-free DMEM containing 1 μM GW3965, 2 μg/mL ACAT inhibitor, and 0.2% BSA (LXR Agonist treated), or serum free DMEM containing 2 μg/mL ACAT inhibitor, and 0.2% BSA (Control). Cells were washed and incubated with 20 μM peptides diluted in serum-free Fluorobrite DMEM for 4 hours at 37° C. Media was transferred to a new 96-well plate and fresh serum-free Fluorobrite DMEM was placed on the cells. Media and cellular fluorescence were read on a Promega GloMax at 475 nm excitation, 500-550 emission. Fluorescence values were background corrected from no treatment conditions and percent efflux was calculated by the following equation: % efflux=(Media Fluorescence values)/(Media+Cell Fluorescence values). Data are presented as mean+SD over two runs per peptide.

[3] = key assays (summary statement on homologous variants)
[4] = high surfactant preparation (HBS-P+), 1:1 binding model, read-out: binding KD to LDLR

| Kd (LDLR; [4]) [µM] | Compound | ARPE-19 cell viability (ARPE-19 cells [1]) | cholesterol efflux following LXR agonist treatment (ARPE-19 cells [2]) | activity in key assays of polypeptides homologous to T-087 [3] | Kd (LDLR) [µM] |
| --- | --- | --- | --- | --- | --- |
| – | CC(C)C[C@H](NC(=O)[C@H](C)NC(=O)[C@H](CCCNC(=N)N)NC(=O)[C@H](Cc1ccccc1)NC(=O)[C@H](CCC(=O)O)NC(=O)[C@H](CCCNC(=N)N)NC(=O)[C@@H](N)Cc1c[nH]c2ccccc12)C(=O)N[C@@H](Cc1ccccc1)C(=O)N[C@@H](CCCCN)C(=O)N[C@@H](CCC(=O)O)C(=O)N[C@@H](CC(C)C)C(=O)N[C@@H](C)C(=O)N[C@@H](CC(=O)O)C(=O)N[C@@H](Cc1ccc(O)cc1)C(=O)N[C@@H](Cc1ccccc1)C(=O)N[C@@H](CCCNC(=N)N)C(=O)N[C@@H](CC(=O)O)C(=O)N[C@@H](C)C(=O)O [T-085] (H-WREFRALFKELADYFRDA-OH) | substantial change in viability | – | – | – |
| < 10 | CSCC[C@H](NC(=O)[C@H](CC(C)C)NC(=O)[C@H](CC(=O)O)NC(=O)[C@H](CCCCN)NC(=O)CNC(=O)[C@H](Cc1ccc(O)cc1)NC(=O)[C@H](CC(=O)O)NC(=O)[C@@H](NC(=O)[C@@H](NC(=O)[C@@H](NC(=O)[C@H](CCC(N)=O)NC(=O)[C@H](Cc1ccccc1)NC(=O)[C@H](Cc1ccc(O)cc1)NC(=O)[C@H](CCC(N)=O)NC(=O)[C@H](CO)NC(=O)[C@@H](NC(=O)[C@H](CC(C)C)NC(=O)[C@H](CO)NC(=O)[C@H](CCCNC(=N)N)NC(=O)[C@H](CC(C)C)NC(=O)[C@H](CC(C)C)NC(=O)[C@H](CCCNC(=N)N)NC(=O)[C@H](CCCCN)NC(=O)[C@H](CCCNC(=N)N)NC(=O)[C@H](CC(C)C)NC(=O)[C@H](CCCCN)NC(=O)[C@H](CCCNC(=N)N)NC(=O)[C@H](CC(C)C)NC(=O)[C@H](Cc1c[nH]cn1)NC(=O)[C@H](CO)NC(=O)[C@H](C)NC(=O)[C@@H](N)CC(C)C)C(C)C)[C@@H](C)O)C(C)C)[C@@H](C)O)C(=O)O [T-065] (H-LASHLRKLRKRLLRSLVSQYFQTVTDYGKDLM-OH) | substantial change in viability | – | – | – |
| < 10 | CC(C)C[C@H](NC(=O)[C@H](CC(=O)O)NC(=O)[C@H](CCCCN)NC(=O)CNC(=O)[C@H](Cc1ccc(O)cc1)NC(=O)[C@H](CC(=O)O)NC(=O)[C@@H](NC(=O)[C@@H](NC(=O)[C@@H](NC(=O)[C@H](CCC(N)=O)NC(=O)[C@H](CCCNC(=N)N)NC(=O)[C@H](Cc1ccc(O)cc1)NC(=O)[C@H](CCC(N)=O)NC(=O)[C@H](CO)NC(=O)[C@@H](NC(=O)[C@H](CC(C)C)NC(=O)[C@H](CO)NC(=O)[C@H](CCCNC(=N)N)NC(=O)[C@H](CC(C)C)NC(=O)[C@H](CC(C)C)NC(=O)[C@H](CCCNC(=N)N)NC(=O)[C@H](CCCCN)NC(=O)[C@H](CCCNC(=N)N)NC(=O)[C@H](CC(C)C)NC(=O)[C@H](CCCCN)NC(=O)[C@H](CCCNC(=N)N)NC(=O)[C@H](CC(C)C)NC(=O)[C@@H](N)Cc1c[nH]cn1)C(C)C)[C@@H](C)O)C(C)C)[C@@H](C)O)C(=O)O [T-110] (H-HLRKLRKRLLRSLVSQYRQTVTDYGKDL-OH) | substantial change in viability | – | – | – |
| < 10 | CC(C)C[C@H](NC(=O)[C@H](CC(=O)O)NC(=O)[C@H](CCC(=O)O)NC(=O)CNC(=O)[C@H](Cc1ccc(O)cc1)NC(=O)[C@H](CC(=O)O)NC(=O)[C@@H](NC(=O)[C@@H](NC(=O)[C@@H](NC(=O)[C@H](CCC(N)=O)NC(=O)[C@H](CCCNC(=N)N)NC(=O)[C@H](Cc1ccc(O)cc1)NC(=O)[C@H](CCC(N)=O)NC(=O)[C@H](CO)NC(=O)[C@@H](NC(=O)[C@H](CC(C)C)NC(=O)[C@H](CO)NC(=O)[C@H](CCCNC(=N)N)NC(=O)[C@H](CC(C)C)NC(=O)[C@H](CC(C)C)NC(=O)[C@H](CCCNC(=N)N)NC(=O)[C@H](CCCCN)NC(=O)[C@@H](NC(=O)[C@H](CC(C)C)NC(=O)[C@H](CCCCN)NC(=O)[C@H](CCCNC(=N)N)NC(=O)[C@H](CC(C)C)NC(=O)[C@@H](N)Cc1c[nH]cn1)C(C)C)C(C)C)[C@@H](C)O)C(C)C)[C@@H](C)O)C(=O)O [T-111] (H-HLRKLVKRLLRSLVSQYRQTVTDYGEDL-OH) | substantial change in viability | – | – | – |
| – | T-161: variant of peptide T-087 (DAWERFRGLFKELADYFR) | – | increased cholesterol efflux | sustained or improved activity | – |
| < 10 | CC(C)C[C@H](NC(=O)[C@H](CCCNC(=N)N)NC(=O)[C@H](CC(=O)O)NC(=O)[C@H](Cc1ccc(O)cc1)NC(=O)[C@H](CC(C)C)NC(=O)[C@H](CCCCN)NC(=O)[C@H](CC(=O)O)NC(=O)CNC(=O)[C@H](CC(=O)O)NC(=O)[C@H](CCCNC(=N)N)NC(=O)[C@H](CC(C)C)NC(=O)[C@H](CC(C)C)NC(=O)[C@H](CCCNC(=N)N)NC(=O)[C@H](CCCCN)NC(=O)[C@H](CCCNC(=N)N)NC(=O)[C@H](CC(C)C)NC(=O)[C@H](CCCCN)NC(=O)[C@H](CCCNC(=N)N)NC(=O)[C@H](CC(C)C)NC(=O)[C@@H](N)Cc1c[nH]cn1)C(=O)N[C@@H](C)C(=O)N[C@@H](CCC(=O)O)C(=O)N[C@@H](Cc1ccc(O)cc1)C(=O)N[C@@H](Cc1ccc(O)cc1)C(=O)N[C@@H](C)C(=O)N[C@@H](CCCNC(=N)N)C(=O)N[C@@H](C)C(=O)N[C@@H](CCCCN)C(=O)N[C@@H](CCC(=O)O)C(=O)N[C@@H](C)C(=O)N[C@@H](Cc1ccccc1)C(=O)N[C@@H](CC(=O)O)C(=O)N[C@@H](CCCNC(=N)N)C(=O)O [T-062] (H-HLRKLRKRLLRDGDKLYDRLAEYYARAKEAFDR-OH) | substantial change in viability | – | – | – |
| – | T-172: variant of peptide T-087 (DAWERFRALFKELADYFA) | – | increased cholesterol efflux | sustained or improved activity | – |
| – | DHINKVQRKVTHEIERLFLGQSTEELRVRLASHLRKLRKRLLRDADDLQKRLAVYQA [T-115] | substantial change in viability | – | – | < 10 |
| – | T-160: variant of peptide T-087 (DAWERFRPLFKELADYFR) | – | increased cholesterol efflux | sustained or improved activity | – |
| – | VRGRLVQYRGEVQAMLGQSTEELRVRLASHLRKLRKRLLRDADDLQKRLAVYQA [T-069] | substantial change in viability | – | – | < 10 |
| – | T-152: variant of peptide T-087 (AAWERFRALFKELADYFR) | – | increased cholesterol efflux | sustained or improved activity | – |
